From patent US9493446B2, “Orexin receptor antagonists which are [ortho bi-(hetero-)aryl]-[2-(meta bi-(hetero-)aryl)-pyrrolidin-1-yl]-methanone derivatives” (Actelion Pharmaceuticals Ltd, priority 2012, dated 2016)
Read-outs that look alike come from different tables or passages of the source.

Experiments:
orexin-1 [1] = target: T1, orexin-1 (Homo sapiens (Human), UniProt O43613); settings: cited from earlier work
humans = settings: primary insomnia; cited from earlier work
rat [2] = settings: cited from earlier work
rats = settings: cited from earlier work
rat [3] = settings: cited from earlier work; remark: listed apart in the source
[4] = system: amyloid precursor protein transgenic mice; settings: after acute sleep restriction, APP transgenic mice; cited from earlier work
mouse = settings: administered chronically; cited from earlier work
fasted hungry rats = fasted hungry rats exposed to food odors; cited from earlier work
rat [5] = settings: cited from earlier work; remark: listed apart in the source
orexin-1 [6] = target: T1, orexin-1; experiment: Intracellular calcium measurement (FLIPR), CHO cells expressing human orexin-1 receptor, 3 nM orexin-A; type: cell-based; settings: CHO cells expressing human orexin-1 receptor, FLIPR, 3 nM orexin-A; geometric mean if determined several times; read-out: IC50 OX1
Outline: (§1)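 Antagonist is added 120 min before agonist. Fluo-4 AM-loaded CHO cells carry human orexin-1 or orexin-2 receptor, and calcium is read by FLIPR.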

human orexin-2 receptor = human orexin-2 receptor (Homo sapiens (Human), UniProt O43614); experiment: Intracellular calcium measurement (FLIPR), CHO cells expressing human orexin-2 receptor, 3 nM orexin-A; type: cell-based; settings: CHO cells expressing human orexin-2 receptor, FLIPR, 3 nM orexin-A; geometric mean if determined several times; read-out: IC50 OX2
Outline: as §1

[7] = Measurement of brain and systemic concentration after oral administration; type: in vivo; settings: rat, 3 h after oral administration (100 mg/kg), n=3, male wistar rats;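 as to concentration in plasma [P]: unit ng/mL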
Method: Measurement of Brain and Systemic Concentration after Oral Administration:
In order to assess brain penetration, the concentration of the compound is measured in plasma ([P]), and brain ([B]), sampled 3 h (or at different time points) following oral administration (e.g. 100 mg/kg) to male wistar rats. The compounds are formulated e.g. in 100% PEG 400. Samples are collected in the same animal at the same time point (+/−5 min). Blood is sampled from the vena cava caudalis into containers with EDTA as anticoagulant and centrifuged to yield plasma. Brain is sampled after cardiac perfusion of 10 mL NaCl 0.9% and homogenized into one volume of cold phosphate buffer (pH 7.4). All samples are extracted with MeOH and analyzed by LC-MS/MS. Concentrations are determined with the help of calibration curves.

Wistar rats = experiment: Sleep effects: EEG, EMG and behavioural indices of alertness by radiotelemetry; type: in vivo; settings: effects analyzed over 12 hours, compared to vehicle controls
Method: Sleep Effects: EEG, EMG and Behavioural Indices of Alertness Recorded by Radiotelemetry In Vivo in Wistar Rats.
Electroencephalography (EEG) and Electromyography (EMG) signals were measured by telemetry using TL11M2-F20-EET miniature radiotelemetric implants (Data Science Int.) with two pairs of differential leads.
Surgical implantation was performed under general anesthesia with Ketamin/Xylazin, for cranial placement of one differential pair of EEG electrodes and one pair of EMG leads inserted in either side of the muscles of the neck. After surgery, rats recovered in a thermoregulated chamber and received analgesic treatment with subcutaneous buprenorphine twice a day for 2 d. They were then housed individually and allowed to recover for a minimum of 2 weeks. Thereafter, rats—in their home cage—were placed in a ventilated sound-attenuating box, on a 12-h light/12-h dark cycle, for acclimatization before continuous EEG/EMG recordings started. The telemetric technology that we used in this study allows accurate and stress-free acquisition of biosignals in rats placed in their familiar home cage environment, with no recording leads restricting their movements. Variables analyzed included four different stages of vigilance and sleep, spontaneous activity in the home cage and body temperature. Sleep and wake stages were evaluated using a rodent scoring software (Somnologica Science) directly processing electrical biosignals on 10 s contiguous epochs. The scoring is based on frequency estimation for EEG and amplitude discrimination for EMG and locomotor activity. Using these measurements, the software determines the probability that all components within each epoch best represent active waking (AW), quiet waking (QW), non-REM-sleep (NREM) or REM-sleep (REM). The percentage of total time spent in AW, QW, NREM- and REM-sleep was calculated per 12 h light or dark period. The latency to the onset of the first significant NREM- and REM-sleep episodes and the number and duration of those episodes were also calculated. AW, QW, NREM- and REM-sleep, home cage activity and body temperature were measured at baseline for at least one total circadian cycle (12 h-night, 12 h-day) before a test compound was administered. […] All variables were subsequently recorded for 12 h following administration of the orexin receptor antagonist.

rodents [8] = settings: conditioned reinforcer; cited from earlier work
rodents [9] = settings: cited from earlier work
[10] = brain, read-out: concentration in brain [B]
[11] = plasma, read-out: concentration in plasma [P]

T1 sequence (O43613 whole entry): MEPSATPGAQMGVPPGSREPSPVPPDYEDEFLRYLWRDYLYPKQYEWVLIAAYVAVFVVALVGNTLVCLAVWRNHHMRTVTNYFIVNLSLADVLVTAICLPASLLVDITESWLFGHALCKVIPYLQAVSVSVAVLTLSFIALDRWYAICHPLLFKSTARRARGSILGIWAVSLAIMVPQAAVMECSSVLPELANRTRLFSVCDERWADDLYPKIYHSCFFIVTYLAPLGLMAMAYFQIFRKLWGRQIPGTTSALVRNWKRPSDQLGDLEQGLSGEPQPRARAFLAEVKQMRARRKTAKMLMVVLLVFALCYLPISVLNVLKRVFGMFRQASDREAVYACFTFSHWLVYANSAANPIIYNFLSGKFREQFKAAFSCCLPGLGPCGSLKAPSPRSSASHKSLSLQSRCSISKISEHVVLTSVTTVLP
human orexin-2 receptor, sequence (O43614 whole entry): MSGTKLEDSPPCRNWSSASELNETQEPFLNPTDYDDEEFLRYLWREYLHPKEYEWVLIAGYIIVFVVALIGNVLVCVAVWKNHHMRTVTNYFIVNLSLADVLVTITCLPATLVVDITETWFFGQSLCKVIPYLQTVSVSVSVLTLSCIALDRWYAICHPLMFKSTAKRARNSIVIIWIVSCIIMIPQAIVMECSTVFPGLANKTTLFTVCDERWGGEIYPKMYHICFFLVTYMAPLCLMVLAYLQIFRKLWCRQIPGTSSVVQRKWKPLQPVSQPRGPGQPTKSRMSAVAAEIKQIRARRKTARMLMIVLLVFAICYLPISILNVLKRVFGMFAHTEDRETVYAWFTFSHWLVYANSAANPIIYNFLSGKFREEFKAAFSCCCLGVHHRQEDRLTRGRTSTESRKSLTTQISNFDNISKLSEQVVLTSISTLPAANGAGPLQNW

Compound | IC50 (orexin-1 [6]) [nM] | IC50 (human orexin-2 receptor) [nM] | concentration at 3 h [7, 10] [ng/g] | concentration at 3 h [7, 11] [ng/mL] | effect on NREM sleep (Wistar rats; 100 mg/kg po) | effect on REM sleep (Wistar rats; 100 mg/kg po) | effect on active wake (Wistar rats; 100 mg/kg po) [%] | effect on home cage activity (Wistar rats; 100 mg/kg po) [%] | other results
Cc1nc(C(=O)N2CCC[C@H]2Cc2nnc(-c3ccccc3)o2)c(-c2ccccc2F)s1 [1-(5-(2-fluoro-phenyl)-2-methyl-thiazol-4-yl)-1-[(S)-2-(5-phenyl-[1,3,4]oxadiazol-2-ylmethyl)-pyrrolidin-1-yl)-methanone] | – | – | – | – | – | – | – | – | orexin receptor selectivity (orexin-1 [1]): highly orexin-1 selective
CNC(=O)[C@@H](c1ccccc1)N1CCc2cc(OC)c(OC)cc2[C@@H]1CCc1ccc(C(F)(F)F)cc1 [(2R)-2-{(1S)-6,7-dimethoxy-1-[2-(4-trifluoromethyl-phenyl)-ethyl]-3,4-dihydro-1H-isoquinolin-2-yl}-N-methyl-2-phenyl-acetamide] | – | – | – | – | – | – | – | – | clinical efficacy (humans): showed clinical efficacy; alertness (active wake and locomotion) (rat [2]): decrease alertness; time spent in REM and NREM sleep (rat [2]): dose-dependently increase the time spent in both REM and NREM sleep; cardiovascular responses to conditioned fear and novelty exposure (rats): attenuated cardiovascular responses to conditioned fear and novelty exposure; activity in fear-potentiated startle paradigm (rat [3]): active; brain levels of amyloid-beta and plaque deposition [4]: decreased brain levels of amyloid-beta (Aβ) as well as Aβ plaque deposition; antidepressant-like activity (mouse): induce antidepressant-like activity; natural activation induced by orexin A (fasted hungry rats): attenuate the natural activation induced by orexin A; pharmacological activity in nicotine self-administration (rat [5]): displayed pharmacological activity
Cc1cc(C(=O)N2CCC[C@H]2c2nc(-c3cccc(Cl)c3C)no2)c(-n2nccn2)cc1C [Example 95, {(S)-2-[3-(3-Chloro-2-methyl-phenyl)-[1,2,4]oxadiazol-5-yl]-pyrrolidin-1-yl}-(4,5-dimethyl-2-[1,2,3]triazol-2-yl-phenyl)-methanone] | 13 | 3 | 483 | 309 | +11.2% | +7.8% | −7.3 | −20.3 | –
COc1cc(C(=O)N2CCC[C@H]2c2nc(-c3ccccc3OC(F)(F)F)no2)c(-n2nccn2)cc1C [Example 154, (5-Methoxy-4-methyl-2-[1,2,3]triazol-2-yl-phenyl)-{(S)-2-[3-(2-trifluoromethoxy-phenyl)-[1,2,4]oxadiazol-5-yl]-pyrrolidin-1-yl}-methanone] | 30 | 2 | 3250 | 2240 | +7.3% | +0.9% | −13.9 | −26.8 | –
COc1cc(C(=O)N2CCC[C@H]2c2noc(-c3ccccc3OC(F)(F)F)n2)c(-n2nccn2)cc1C [Example 308, (5-Methoxy-4-methyl-2-[1,2,3]triazol-2-yl-phenyl)-{(S)-2-[5-(2-trifluoromethoxy-phenyl)-[1,2,4]oxadiazol-3-yl]-pyrrolidin-1-yl}-methanone] | 22 | 4 | 1580 | 1760 | +14.3% | +35.2% | −24.0 | −41.4 | –
Cc1ccc(C(=O)N2CCC[C@H]2c2nnc(-c3ccccc3OC(F)(F)F)[nH]2)c(-n2nccn2)c1 [Example 502, (4-Methyl-2-[1,2,3]triazol-2-yl-phenyl)-{(S)-2-[5-(2-trifluoromethoxy-phenyl)-4H-[1,2,4]triazol-3-yl]-pyrrolidin-1-yl}-methanone] | – | – | 1640 | 2770 | +24.2% | +47.0% | −19.4 | −47.1 | –
C[C@@]1(c2nnc(-c3ccccc3OC(F)(F)F)[nH]2)CCCN1C(=O)c1ccc(Cl)cc1-n1nccn1 [Example 544, (4-Chloro-2-[1,2,3]triazol-2-yl-phenyl)-{(S)-2-methyl-2-[5-(2-trifluoromethoxy-phenyl)-4H-[1,2,4]triazol-3-yl]-pyrrolidin-1-yl}-methanone] | 5 | 6 | 1120 | 1070 | – | – | – | – | effect on NREM sleep (Wistar rats; 30 mg/kg po): +19.4%; effect on REM sleep (Wistar rats; 30 mg/kg po): +5.6%; effect on active wake (Wistar rats; 30 mg/kg po): −9.6%; effect on home cage activity (Wistar rats; 30 mg/kg po): −18.5%
Cn1c(SCC(=O)N2CCC[C@H]2C(=O)Nc2ccccc2-c2ccccc2)nc2ccccc21 [N-Biphenyl-2-yl-1-{[(1-methyl-1H-benzimidazol-2-yl)sulfanyl]acetyl}-L-prolinamide] | – | – | – | – | – | – | – | – | nicotine-reinstatement (rodents [8]): inhibited nicotine-reinstatement for a conditioned reinforcer; behavioral and molecular changes induced by repeated amphetamine (rodents [9]): reduced behavioral (locomotor sensitization) and molecular (transcriptional responses) changes
